Source: patent US4292319A, “Antiphlogistic pharmaceutical compositions and method of use” (Boehringer Ingelheim GmbH, priority 1977, dated 1981)
Read-outs that look alike come from different tables or passages of the source.

Legend:
ulcer = format: in vivo; details: without pirenzepine dihydrochloride; several hundred cases, two years
gastro-intestinal tract = details: clinical; depending upon experience, patients and compound primarily used; cited from earlier work
[1] = system: kaolin-induced edema of the rat's hind paw; experiment: Test for antiphlogistic effect against the kaolin-induced edema of the rat's hind paw; format: in vivo, rat (Chbb:THOM); details: rat; for ED35: Rattus norvegicus, po, 5 h, kaolin edema; for Thickness of the paw (mean): oral, 5 h after kaolin
Experimental: (2) Test for antiphlogistic effect against the kaolin-induced edema of the rat's hind paw (tested substances: A, B, C and D)
The test was carried out on male Chbb:THOM-rats with a body weight between 125 and 150 gm. According to HILLEBRECHT [Arzneimittel-Forsch. 4, 607 (1954)], a subplantary injection of 0.05 ml of a 10% suspension of kaolin in an aqueous 0.85% sodium chloride solution in the hind paw was used for the provocation of the kaolin edema. The other hind paw was subplantarily injected with the same volume of an aqueous 0.85% sodium chloride solution.
The measurement of the thickness of the paws was carried out using the technique of DOEPFNER and […] [Int. Arch. Allergy appl. Immunol. 12, 89 (1958)] by way of the determination of the maximum sagittal diameter, using a measuring device with constant pressure, before and 5 hours after the provocation of the edema.
The test substances (the non-steroidal antiphlogistics or the mixture of non-steroidal antiphlogistics with pirenzepine dihydrochloride) were administered 30 minutes before provocation of the edema as a trituration in 1% tylose (1 ml/[…]) by way of an esophageal tube.
The diameter of the paw measured before the beginning of the test as well as the increase in diameter of the other paw caused by injection were subtracted from the diameter of the kaolin-treated paw, and this difference, being the real swelling value, was used for the further calculations.
From the swelling values obtained by administration of different dosages of non-steroidal antiphlogistics with or without the addition of pirenzepine dihydrochloride, using a linear regression analysis according to LINDNER [Statistische Methoden, 4th Ed., pages 148-162, Birkhauser, Basel, Switzerland (1964)], the ED35 values of the antiphlogistics were calculated with the confidence limits according to FIELLER [Quart. J. Pharm. Pharmacol. 17, 117 (1944)], the ED35 being the dosage which reduces the swelling of the paws by 35% in comparison to the control animals.

stomach of the rat = experiment: Test for ulcerogenic effect on the stomach of the rat; format: in vivo, rat (Chbb:THOM); details: oral, 3 subsequent days
Experimental: (§1) (1) Test for ulcerogenic effect on the stomach of the rat
(§2) The test was carried out on male and female (1:1) Chbb:THOM-rats with a body weight between 130 to 150 gm at the beginning of the study.
(§3) The test substances (non-steroidal anti-phlogistics or mixtures of these antiphlogistics with pirenzepine dihydrochloride) were administered as triturations in 1% tylose (1 ml/100 gm animal) by way of an esophageal tube once a day on three successive days.
(§4) Four hours after the last administration (i.e. on the 3rd day) the animals were killed by an over-dose of ether. The stomachs wer dissected, cut along the great curvature and washed under flowing water for subsequent macroscopic evaluation.

[2] = as above; format: in vivo, rat (Chbb:THOM); details: in vivo, po, oral, 3 subsequent days, read-out: ED50-ulcer
Experimental: as §1, §2, §3, §4

[3] = system: gastro-intestinal side-effects caused by non-steroidal antiphlogistics; experiment: Clinical tests of suppression of gastro-intestinal side-effects by pirenzepine; format: in vivo

COc1ccc2c(c1)c(CC(=O)O)c(C)n2C(=O)c1ccc(Cl)cc1 [B, 1-(4-chloro-benzoyl)-5-methoxy-2-methyl-1H-indole-3-aceticacid]
ulcer rate (ulcer): 37% | gastro-intestinal incompatabilities encountered, share of all cases (gastro-intestinal tract): 25-37% | ED35 ([1]; with A 100 mgm/kg): 3 mg/kg | ED35 ([1]; without A): 4.3 mg/kg | Thickness of the paw (mean) ([1]; antiphlogistic 1.5 mgm/kg + A 100 mgm/kg): 200.3 10^-2 mm | Thickness of the paw (mean) ([1]; antiphlogistic 1.5 mgm/kg, without A): 214.8 10^-2 mm | Thickness of the paw (mean) ([1]; antiphlogistic 3.0 mgm/kg + A 100 mgm/kg): 178.3 10^-2 mm | Thickness of the paw (mean) ([1]; antiphlogistic 3.0 mgm/kg, without A): 189.0 10^-2 mm | Thickness of the paw (mean) ([1]; antiphlogistic 6.0 mgm/kg + A 100 mgm/kg): 162.9 10^-2 mm | Thickness of the paw (mean) ([1]; antiphlogistic 6.0 mgm/kg, without A): 164.5 10^-2 mm | Ratio of animals with ulcers (stomach of the rat; antiphlogistic 2 mgm/kg, without A): 4/18 | Ratio of animals with ulcers (stomach of the rat; antiphlogistic 2.8 mgm/kg + A 50 mgm/kg): 4/16 | Ratio of animals with ulcers (stomach of the rat; antiphlogistic 2.8 mgm/kg + A 100 mgm/kg): 4/16 | Ratio of animals with ulcers (stomach of the rat; antiphlogistic 2.8 mgm/kg, without A): 11/18 | Ratio of animals with ulcers (stomach of the rat; antiphlogistic 4.0 mgm/kg + A 50 mgm/kg): 12/16 | Ratio of animals with ulcers (stomach of the rat; antiphlogistic 4.0 mgm/kg + A 100 mgm/kg): 5/15 | Ratio of animals with ulcers (stomach of the rat; antiphlogistic 4 mgm/kg, without A): 16/18 | Ratio of animals with ulcers (stomach of the rat; antiphlogistic 5.66 mgm/kg + A 50 mgm/kg): 13/15 | Ratio of animals with ulcers (stomach of the rat; antiphlogistic 5.66 mgm/kg + A 100 mgm/kg): 8/15 | Ratio of animals with ulcers (stomach of the rat; antiphlogistic 8.0 mgm/kg + A 100 mgm/kg): 15/15 | TD50 ([2]; with A 50 mgm/kg): 3.3 mg/kg | TD50 ([2]; with A 100 mgm/kg): 4.9 mg/kg | TD50 ([2]; without A): 2.55 mg/kg

CN1CCN(CC(=O)N2c3ccccc3C(=O)Nc3cccnc32)CC1 [pirenzepine, 5,11-dihydro-11-[(4-methyl-1-piperazinyl)-acetyl]-6H-pyrido[2,3-b] [1,4] benzodiazepin-6-one]
incompatibilities between pirenzepine and non-steroidal antiphlogistics ([3]; combined administration): not observed any incompatibilities | mucous membrane protection by single therapeutic doses at 12-hour intervals ([3]; single therapeutic doses at 12-hour intervals): sufficient to assure round-the-clock mucous membrane protection
